The record followed here is patent publication EP1060190B1, “NEW SALT FORMS OF (2E)- 5-AMINO-5- METHYLHEX-2- ENOIC ACID N-METHYL-N-((1R)-1-(N- METHYL-N-((1R)-1-(METHYLCARBAMOYL)-2- PHENYLETHYL)CARBAMOYL)-2- (2-NAPHTYL)ETHYL)AMIDE” (NOVO NORDISK A/S, priority 1998, dated 1999).

SMILES strings stand for the structures. Where a name gives a salt, the structure may show the parent alone.

The series can be described thus: Exposure of the anhydrous salt form to high humidity (solid form stability). It counts as physicochemical. Conditions: e.g. 10 weeks at 98% RH.

Turning to `CNC(=O)[C@@H](Cc1ccccc1)N(C)C(=O)[C@@H](Cc1ccc2ccccc2c1)N(C)C(=O)/C=C/CC(C)(C)N` [compound I,hfum, compound I,hemi fumarate], the “Exposure of the anhydrous form to high humidity” value is on record as “produced the hydrous form”.
